Series [1] can be described thus: Inhibition of NMDA-induced seizures after i.c.v. administration. It counts as in vivo, male CF-1 mice. The settings on record: mouse, in vivo, icv or intrathecal; ratio of rotorod TD50 to NMDA-seizure ED50; ICV administration. Here is the method: (§1) Anticonvulsant studies: The potency of the isomers of APCA to inhibit NMDA-induced seizures was evaluated using male CF-1 mice. All drugs were dissolved in isotonic saline and the pH adjusted to neutrality using NaOH. The test compounds were injected intracerebroventricularly (i.c.v.) in a final volume of […]. N-Methyl-D-aspartate (250mg/kg of body weight) was dissolved in saline (1% v/w of body weight) and injected intraperitoneally (i.p.) 15 minutes following the administration of the test agent. […] NMDA-induced seizures were defined as presence of tonic/clonic activity accompanied by hindlimb extension and death. Rotorod: Animals used for seizure studies were evaluated for motor impairment using the rotorod test. Before use all animals were tested for their ability to maintain equilibrium for 60 seconds on a 1-inch knurled bar rotating at a speed of 6 to 7 rpm. Each animal was given three separate trials. Animals performing the task in any of the three trials were used for further study.
For orientation: Falling from the rotarod earlier than controls is read as motor impairment.

In the next series the test system is NMDA-induced seizures. The description is as above. As to conditions: for ED50: Mus musculus, central, potency to inhibit NMDA-induced seizures, ICV administration 15 minutes before NMDA 250mg/kg i.p., mixtures enriched in the stated isomer, less than about 95% pure. It counts as in vivo, male CF-1 mice. Here is the method: as §1
The nature of series [2]: Rotorod test for motor impairment after i.c.v. administration. Set-up: species or system male CF-1 mice. The settings on record: mouse, in vivo, icv or intrathecal; potency to impair rotorod performance; tested 10 minutes after i.c.v. administration; enriched mixtures, less than about 95% pure. Here is the method:
as §1
Animals were tested for impairment 10 minutes after i.c.v. administration of the test agent and 5 minutes before administration of the seizure-inducing agent. Each animal was tested on a maximum of three trials; completion of any one of the trials was screened as passing.

The target of the next series is NMDA receptors. The experiment in a line: Inhibition of specific binding of [3H]CGS-19755 to rat forebrain membranes. As to conditions: for IC50: [3H]CGS-19755 4.62 x 10^-9 M, rat forebrain membranes, 20min, 23 C, enriched mixtures, less than about 95% pure. The method, then:
Binding studies: The potency of compounds to inhibit the specific binding of [^3H]CGS-19755 (specific activity 50.5 Ci/mmol, New England Nuclear, Boston, MA) to NMDA receptors was performed as described by Ferkany et al., (J. Pharmacology and Experimental Therapeutics, 1989, 250:100-109). Briefly, animals were sacrificed by decapitation, the forebrain removed immediately and the "buffy coat" prepared as described by Enna and Snyder (Enna, S. and Snyder, S.H., Molecular Pharmacology, 1977, 13:422-433). Crude synaptic membranes were stored frozen (-20 °C) until used. On the day of the assay, membranes were thawed to room temperature and homogenized in 20 vol (w/v) of assay buffer. The homogenate was centrifuged (48,000 x g; 10min; 4 °C), the supernatant decanted and the pellet resuspended as before. The procedure was repeated until the tissue had been washed 4 times to remove endogenous inhibitors.
For assay, the final pellet was resuspended in sufficient buffer (Tris HCl, 0.05M, pH 7.1, 23 °C) to yield a tissue concentration of 0.2mg of protein per ml. Two-milliliter portions of the suspension were added in duplicate to tubes containing ligand (final concentration = 4.62 x 10^- ^9 M) and the compound of interest ([…]). After an incubation of 20min (23 °C), the reaction was terminated by centrifugation, the supernatant was decanted and the pellets washed rapidly and superficially with 2 x 2.5ml of ice-cold buffer. Tissue was solubilized in Protosol (0.5 ml, New England Nuclear, Boston, MA) and after the addition of scintillant, radioactivity was determined using standard procedures.
Non specific binding was determined using L-glutamate at a final concentration of 10^-3 M. Routinely, IC50s were determined using 8-12 concentrations of inhibitor.

On to `N[C@H](C[C@H]1CCCC[C@H]1CCP(=O)(O)O)C(=O)O` (single isomer, unassigned) [cis isomer A, 2-amino-4,5-(1,2-cyclohexyl)-7-phosphonoheptanoic acid], for which the selectivity ratio in series [1] turned out to be 30.5. The ED50 (commonly the midpoint of the dose-response relation) with NMDA-induced seizures is 1.05 mg/kg. Further, the “fold more potent than the next most potent isomer” value in the series on NMDA-induced seizures (in vivo effects of Table 1) was “at least 25 fold”. Also, the TD50 (usually the 50% point of the dose-response relation for the toxic effect studied) at 10 min in series [2] came to 32 mg/kg. Also, the IC50 (as a rule, the concentration that gives 50% inhibition) at NMDA receptors amounted to 270 ± 12 nM. Also, the “fold more potent than cis isomer C, the next most potent isomer” value in the series on NMDA receptors (binding data of Table 2) was “approximately 8 fold”.

As for `O=C(O)C1CN(CCCP(=O)(O)O)CCN1` (racemic) [(±) CPP, 4-(3-phosphonopropyl)-2-piperazine carboxylic acid, reference compound], the selectivity ratio in series [1] came to 4.5. For the same compound, the ED50 in the series with NMDA-induced seizures was 2.2 mg/kg. Besides, the TD50 at 10 min in series [2] was determined as 10 mg/kg. Also, on NMDA receptors, the IC50 worked out at 190 ± 15 nM.

`O=C(O)[C@H]1C[C@@H](CP(=O)(O)O)CCN1` (relative stereo) [CGS-19755, cis-4-(phosphonomethyl)-2-piperidinecarboxylic acid, reference compound]: the selectivity ratio in series [1] turned out to be 6.4. Moreover, the median effective dose (ED50) in the series on NMDA-induced seizures turned out to be 2.64 mg/kg. Besides, the TD50 at 10 min in series [2] amounted to 17 mg/kg.

The values above are taken from patent EP0639197B1, “EXCITATORY AMINO ACID ANTAGONISTS” (GUILFORD PHARMACEUTICALS INC., priority 1990, dated 1992).
